Converted amounts (≈) assume the structure as drawn.
Key:
P. aeruginosa PAO1 = experiment: Susceptibility Testing (MIC, broth microdilution); assay type: cell-based, Pseudomonas aeruginosa; conditions: Pseudomonas aeruginosa, PAO1, 20 h, P. aeruginosa PAO1, broth microdilution, 20 hours; read-out: PAO1 MIC
Protocol: Bacterial isolates were cultivated from −70° C. frozen stocks by two consecutive overnight passages at 35° C. in ambient air on 5% blood agar (Remel, Lenexa, Kans.). Quality control and P. aeruginosa ATCC 27853) is from the American Type Culture Collection (ATCC; Rockville, Md.) and PAO1 was received from Dr. K. Poole.
Minimal Inhibitory Concentrations (MICs) were determined by the broth microdilution method in accordance with Clinical and Laboratories Institute (CLSI) guidelines. In brief, fresh bacterial overnight cultures were resuspended in sterile saline, adjusted to a 0.5 McFarland turbidity standard and then diluted […] in cation adjusted Mueller-Hinton Broth II (MHB; Remel BBL) to yield a final inoculum of approximately 5×10^5 colony-forming units (CFU)/mL. Two-fold serial dilutions of compounds were prepared in 100% dimethyl sulfoxide (DMSO) at 100-fold the highest final assay concentration; the resulting dilution series of compounds were diluted 1:10 with sterile water. Ten μl of the drug dilution series in 10% DMSO was transferred to microtiter wells and 90 μl of bacterial suspension was inoculated into the wells. All inoculated microdilution trays were incubated in ambient air at […] for 20 hours. Following incubation, assay plates were read in a microtiter plate reader at 600 nm and visually inspected to confirm the MIC endpoint well with the OD value. The lowest concentration of the compound that prevented visible growth was recorded as the MIC. Performance of the assay was monitored by testing ciprofloxacin against laboratory quality control strains in accordance with guidelines of the CLSI.

P. aeruginosa LpxC = P. aeruginosa LpxC (Pseudomonas aeruginosa (strain ATCC 15692 / DSM 22644 / CIP 104116 / JCM 14847 / LMG 12228 / 1C / PRS 101 / PAO1), UniProt P47205); experiment: P. aeruginosa LpxC Inhibition Assay; assay type: biochemical; conditions: 1 nM P. aeruginosa LpxC, 2 μM substrate, LC-MS/MS; read-out: PA LpxC IC50
Description: The P. aeruginosa LpxC protein is produced according to the general method of Hyland et al (Journal of Bacteriology 1997 179, 2029-2037: Cloning, expression and purification of UDP-3-O-acyl-GIcNAc deacetylase from Pseudomonas aeruginosa: a metalloamidase of the lipid A biosynthesis pathway). The LC-MS/MS method for quantitation of LpxC product was developed using an Agilent 1200 Capillary HPLC system coupled to an Applied Biosystems MDS Sciex 4000QTRAP mass spectrometer. Both instruments are controlled using the Applied Biosystems MDS Sciex Analyst software. LpxC reaction product (UDP-3-O—(R-3-hydroxyacyl)-glucosamine) was produced by hydrolysis of LpxC substrate catalyzed by P.a. LpxC and purified using reversed phase chromatography on a Phenomenex Luna C18(2) 4.6×50 mm column. An LpxC product calibration curve was generated to evaluate the sensitivity and dynamic range of the LC-MS/MS method. Briefly, compounds are pre-incubated with 1 nM P. aeruginosa LpxC for 30 min. at room temperature. Reactions are initiated by the addition of 2 μM UDP-3-O—(R-3-hydroxydecanoyl)-GIcNAc. Reactions are conducted in a 384-well plate with a total volume of 50 μL in each well containing 50 mM Sodium phosphate pH 7.5, 0.005% Trition X-100 for 20 min at room temperature. After quenching with 1.8% HOAc (5 μL of a 20% HOAc added to each well), reaction mixtures are analyzed using the LC-MS/MS method and peak areas are transformed into product concentration using a LpxC product calibration curve. Total activity (0% inhibition control) is obtained from reactions with no inhibitors and 100% inhibition control is the background using quenched samples before reaction starts. For IC50 determinations, peak areas are converted to percent inhibition in Microsoft Excel. Percent inhibition values are plotted vs. log compound concentration using XLfit. Data is fit to the four-parameter logistic equation using the non-linear regression algorithm in XLfit to return the IC50 and hill slope values.

Structure (SMILES)	MIC (P. aeruginosa PAO1) [µg/mL]	IC50 (P. aeruginosa LpxC) [nM]
C[C@@](C[C@H]1CC(c2ccc(C#CC3CC(F)C3)cc2)=NO1)(C(=O)NO)S(C)(=O)=O (stereo partly drawn) [Compound 54, (R)-3-((R)-3-(4-((3-fluorocyclobutyl)ethynyl)phenyl)-4,5-dihydroisoxazol-5-yl)-N-hydroxy-2-methyl-2-(methylsulfonyl) propanamide]	1 (≈ 2.37 µM)	0.7
CC(CC1CC(c2ccc(C#CC3CC3)cc2F)=NO1)(C(=O)NO)S(C)(=O)=O (single isomer, unassigned) [Compound 17-B, 3-(3-(4-(cyclopropylethynyl)-2-fluorophenyl)-4,5-dihydroisoxazol-5-yl)-N-hydroxy-2-methyl-2-(methylsulfonyl)propanamide]	0.5 (≈ 1.22 µM)	< 0.5
C[C@@](C[C@H]1CC(c2ccc(-n3nccn3)cc2)=NO1)(C(=O)NO)S(C)(=O)=O [Compound 43, (R)-3-((R)-3-(4-(2H-1,2,3-triazol-2-yl)phenyl)-4,5-dihydroisoxazol-5-yl)-N-hydroxy-2-methyl-2-(methylsulfonyl)propanamide]	1.4 (≈ 3.56 µM)	5
CCc1ccc(C2=NO[C@@H](C[C@](C)(C(=O)NO)S(C)(=O)=O)C2)c(F)c1 [Compound 120, (R)-3-((R)-3-(4-ethyl-2-fluorophenyl)-4,5-dihydroisoxazol-5-yl)-N-hydroxy-2-methyl-2-(methylsulfonyl)propanamide]	0.5 (≈ 1.34 µM)	0.6
C[C@@](C[C@H]1CC(c2ccc(-c3ccncc3Cl)cc2)=NO1)(C(=O)NO)S(C)(=O)=O [Compound 82, (R)-3-((R)-3-(4-(3-chloropyridin-4-yl)phenyl)-4,5-dihydroisoxazol-5-yl)-N-hydroxy-2-methyl-2-(methylsulfonyl)propanamide]	0.35 (≈ 0.799 µM)	< 0.5
COc1ccc(-c2ccc(C3=NO[C@@H](C[C@](C)(C(=O)NO)S(C)(=O)=O)C3)cc2F)cn1 [Compound 105, (R)-3-((R)-3-(3-fluoro-4-(6-methoxypyridin-3-yl)phenyl)-4,5-dihydroisoxazol-5-yl)-N-hydroxy-2-methyl-2-(methylsulfonyl)propanamide]		1
C[C@@](C[C@H]1CC(c2ccc(-c3ccncc3C(F)(F)F)cc2)=NO1)(C(=O)NO)S(C)(=O)=O [Compound 111, (R)—N-hydroxy-2-methyl-2-(methylsulfonyl)-3-((R)-3-(4-(3-(trifluoromethyl)pyridin-4-yl)phenyl)-4,5-dihydroisoxazol-5-yl)propanamide]	1 (≈ 2.12 µM)	< 0.5
COc1cc(-c2ccc(C3=NO[C@@H](C[C@](C)(C(=O)NO)S(C)(=O)=O)C3)cc2)c(F)cn1 [Compound 80, (R)-3-((R)-3-(4-(5-fluoro-2-methoxypyridin-4-yl)phenyl)-4,5-dihydroisoxazol-5-yl)-N-hydroxy-2-methyl-2-(methylsulfonyl) propanamide]	1 (≈ 2.21 µM)	
C[C@H](O)c1ccc(-c2ccc(C3=NO[C@@H](C[C@](C)(C(=O)NO)S(C)(=O)=O)C3)cc2)cc1 [Compound 56, (R)—N-hydroxy-3-((R)-3-(4′-((S)-1-hydroxyethyl)-[1,1′-biphenyl]-4-yl)-4,5-dihydroisoxazol-5-yl)-2-methyl-2-(methylsulfonyl)]	0.25 (≈ 0.56 µM)	1
CC(C)(O)c1cc(-c2ccc(C3=NO[C@@H](C[C@](C)(C(=O)NO)S(C)(=O)=O)C3)cc2)ccn1 [Compound 81, (R)—N-hydroxy-3-((R)-3-(4-(2-(2-hydroxypropan-2-yl)pyridin-4-yl)phenyl)-4,5-dihydroisoxazol-5-yl)-2-methyl-2-(methylsulfonyl)propanamide]	16 (≈ 34.7 µM)	2
C[C@@](C[C@H]1CC(c2ccc(-c3ccc(CCO)cc3)cc2)=NO1)(C(=O)NO)S(C)(=O)=O [Compound 40, (R)—N-hydroxy-3-((R)-3-(4′-(2-hydroxyethyl)-[1,1′-biphenyl]-4-yl)-4,5-dihydroisoxazol-5-yl)-2-methyl-2-(methylsulfonyl)]	0.16 (≈ 0.358 µM)	0.5
C[C@@](C[C@H]1CC(c2ccc(-c3ccc([C@@H](O)CO)cc3)cc2)=NO1)(C(=O)NO)S(C)(=O)=O [Compound 95, (R)-3-((R)-3-(4′-((R)-1,2-dihydroxyethyl)-[1,1′-biphenyl]-4-yl)-4,5-dihydroisoxazol-5-yl)-N-hydroxy-2-methyl-2-(methylsulfonyl)propanamide]	0.25 (≈ 0.541 µM)	< 0.1
CCc1ccc(C2=NO[C@@H](C[C@](C)(C(=O)NO)S(C)(=O)=O)C2)cc1 [Compound 31, (R)-3-((R)-3-(4-ethylphenyl)-4,5-dihydroisoxazol-5-yl)-N-hydroxy-2-methyl-2-(methylsulfonyl)propanamide]	0.22 (≈ 0.621 µM)	1
C[C@@H](O)Cc1ccc(-c2c(F)cc(C3=NO[C@@H](C[C@](C)(C(=O)NO)S(C)(=O)=O)C3)cc2F)cc1 [Compound 122, (R)-3-((R)-3-(2,6-difluoro-4′-((R)-2-hydroxypropyl)-[1,1′-biphenyl]-4-yl)-4,5-dihydroisoxazol-5-yl)-N-hydroxy-2-methyl-2-(methylsulfonyl)propanamide]	0.5 (≈ 1.01 µM)	< 0.5
C/C=C/c1ccc(C2=NO[C@@H](C[C@](C)(C(=O)NO)S(C)(=O)=O)C2)cc1 [Compound 24, (R)—N-hydroxy-2-methyl-2-(methylsulfonyl)-3-((R)-3-(4-((E)-prop-1-en-1-yl)phenyl)-4,5-dihydroisoxazol-5-yl)propanamide]	0.5 (≈ 1.36 µM)	0.8
CCc1ccc(C2=NO[C@@H](C[C@](C)(C(=O)NO)S(C)(=O)=O)C2)cc1F [Compound 101, (R)-3-((R)-3-(4-ethyl-3-fluorophenyl)-4,5-dihydroisoxazol-5-yl)-N-hydroxy-2-methyl-2-(methylsulfonyl)propanamide]	0.35 (≈ 0.94 µM)	< 0.5
C[C@@](C[C@H]1CC(c2ccc(-c3ccc(C(O)CO)cc3)cc2)=NO1)(C(=O)NO)S(C)(=O)=O (stereo partly drawn) [Compound 72, (2R)-3-((5R)-3-(4′-(1,2-dihydroxyethyl)-[1,1′-biphenyl]-4-yl)-4,5-dihydroisoxazol-5-yl)-N-hydroxy-2-methyl-2-(methylsulfonyl)propanamide]	0.35 (≈ 0.757 µM)	
C[C@@H](O)COc1ccc(-c2ccc(C3=NO[C@@H](C[C@](C)(C(=O)NO)S(C)(=O)=O)C3)cc2)cc1 [Compound 61, (R)—N-hydroxy-3-((R)-3-(4′-((R)-2-hydroxypropoxy)-[1,1′-biphenyl]-4-yl)-4,5-dihydroisoxazol-5-yl)-2-methyl-2-(methylsulfonyl)propanamide]	0.25 (≈ 0.525 µM)	
C[C@@](C[C@H]1CC(c2ccc(-c3ccc(CO)nc3)c(F)c2)=NO1)(C(=O)NO)S(C)(=O)=O [Compound 109, (R)-3-((R)-3-(3-fluoro-4-(6-(hydroxymethyl)pyridin-3-yl)phenyl)-4,5-dihydroisoxazol-5-yl)-N-hydroxy-2-methyl-2-(methylsulfonyl)propanamide]		5
C[C@@](C[C@H]1CC(c2ccc(C#Cc3ccc([C@@H](O)CO)cc3)cc2)=NO1)(C(=O)NO)S(C)(=O)=O [Compound 97, (R)-3-((R)-3-(4-((4-((R)-1,2-dihydroxyethyl)phenyl)ethynyl)phenyl)-4,5-dihydroisoxazol-5-yl)-N-hydroxy-2-methyl-2-(methylsulfonyl) propanamide]	0.71 (≈ 1.46 µM)	
C[C@@](C[C@H]1CC(c2ccc(-c3ccc(C4(CO)CC4)cc3)cc2)=NO1)(C(=O)NO)S(C)(=O)=O [Compound 73, (R)—N-hydroxy-3-((R)-3-(4′-(1-(hydroxymethyl)cyclopropyl)-[1,1′-biphenyl]-4-yl)-4,5-dihydroisoxazol-5-yl)-2-methyl-2-(methylsulfonyl)propanamide]	0.25 (≈ 0.529 µM)	

Reference: patent US9718792B2, “Isoxazoline hydroxamic acid derivatives as LpxC inhibitors” (priority 2014, dated 2017)
